Experimental data: a melting point compilation (Tetko et al.; mined from patent text by program, amines drawn as free bases though some values may be those of a salt)

Row | Compound | melting point
1 | CC(C)CC(=O)N[C@H]1CC[C@H](CCN2CCN(c3nccc4c3OCC4)CC2)CC1 | 187 °C
2 | N#Cc1ccc(C(=O)c2ccc(O)c(CC(=O)O)c2)cc1 | 218 °C
3 | Cc1cc(Cc2nnc(Nc3ccc(Cl)cc3)c3ccccc23)ccn1 | 183 to 184 °C
4 | CN1C[C@H](CCN2CCN(C(c3ccccc3)c3ccccc3)CC2)C[C@@H]2c3cccc4[nH]cc(c34)C[C@H]21 | 206 to 212 °C
5 | NC(=O)c1ccc(-c2ccc3nnn(Cc4ccc5ncsc5c4)c3n2)cc1Cl | 238 to 240 °C
6 | O=C(O)C(=CNc1ccc(OCc2ccccc2)c(OCc2ccccc2)c1)C(=O)O | 73 to 76 °C
7 | CCCCc1nn(-c2ccc(C(F)(F)F)cn2)cc1CCCO | 93 to 94 °C
8 | O=C(NC/C=C\COc1cc(CN2CCCCC2)ccn1)NC1CC1 | 102 to 104 °C
9 | CC(C(=O)O)c1ccc(Oc2ccccc2F)cc1 (stereo unspecified) | 106 to 108 °C
10 | Cc1ccc(Oc2ccccc2C(=N)NN)c(O)c1 | > 260 °C
11 | Cc1nc(N)n(C)c(=O)c1CCN1CCC(Cc2nc3ccccc3n2Cc2ccc(F)cc2)CC1 | 147 °C
12 | CC(=O)N1CCC(NC(=O)N(CCCN2CCC(Cc3ccccc3)CC2)c2ccccc2)CC1 | 132 to 135 °C
13 | O=c1c(Nc2cccc(C(F)(F)F)c2)c(Nc2ccc(Br)cc2-c2nnn[nH]2)c1=O | 150 to 165 °C
14 | COc1ccc(C(=O)Nc2ccc3ccc(Cl)nc3n2)cc1 | 208 °C
15 | NNc1cc(Nc2ccc(F)c(C(F)(F)F)c2)nc(Cl)n1 | 102 to 103 °C
16 | C=CCSC(C#N)C1=NCCc2cc(OC)c(OC)cc21 (stereo unspecified) | 146 to 147 °C
17 | CC(C)(NS(=O)(=O)c1ccc(-c2ccccn2)s1)C(=O)NO | 165 to 166 °C
18 | O=C1Nc2ccc(Cl)cc2C(c2ccc3[nH]c(=O)n(CCCO)c3c2)=N[C@H]1Cc1ccccc1Cl | 210 °C
19 | O=C(Oc1ccc([N+](=O)[O-])cc1)c1cccc2c(Cl)c3ccccc3nc12 | 194 to 196 °C
20 | CON=C(C(=S)OC)c1ccccc1COc1ccccc1Cl | 58 to 60 °C
21 | CCOC(=O)c1ccc(-c2nc(COc3ccc(COc4nn(-c5ccccc5)cc4C=O)cc3OC)c(C)o2)o1 | 143 to 145 °C
22 | Oc1cccc2nscc12 | 184 to 186 °C
23 | OC1CSC(Oc2cccnc2-c2ccc(OC(F)(F)F)cc2)C(O)C1O (stereo unspecified) | 114 to 119 °C
24 | O=C1c2ccccc2C(=O)N1C[C@@H](O)COc1ccc(Cl)cc1O | 214 to 218 °C
25 | CCOC(=O)NN=Cc1ccnc2ccccc12 | 161 °C
26 | CCOC(=O)c1c(C)cc(OC)cc1C(=O)O | 142 to 143 °C
27 | CCCCCCCCCCCCn1nnc(CN(Cc2ccccc2)C(=O)Nc2c(OC)cc(OC)cc2OC)n1 | 57 to 59 °C

The remaining lines, values ahead:

Row | melting point | Compound
28 | 198 to 200 °C | CC(C)(C)OC(=O)C(CCC(N)=O)N1Cc2c(O)cccc2C1=O (stereo unspecified)
29 | 129 to 131 °C | COC(Cc1ccc(OCCc2nc(-c3ccccc3)oc2C)c2ccsc12)C(=O)O (stereo unspecified)
30 | 250 to 252 °C | c1ccc2c(C3CCCc4cncn43)noc2c1 (stereo unspecified)
31 | 142 to 145 °C | COC(=O)c1ccc(-c2nnc(C)o2)s1
32 | 204 °C | Cc1ccc(Oc2ccc(NC(=O)Nc3cc(C(C)(C)C)n[nH]3)cc2)cc1
33 | 237 to 239 °C | CC(C)(C)Nc1c(NCc2ccccc2C(F)(F)F)c(=O)c1=O
34 | 128 to 130 °C | COc1ccc2c(c1OC)CCC2C(=O)O (stereo unspecified)
35 | > 250 °C | O=C1Nc2ccccc2C12COc1c2ccc2c1OCCO2 (stereo unspecified)
36 | 80 °C | O=C1Cc2ccc(S(=O)(=O)Cl)cc21
37 | 100 to 101 °C | O=C1OCCC=C1c1ccccc1
38 | 98 to 100 °C | CCOC(=O)c1c(C)ncn(-c2ccc(Cl)cc2)c1=O
39 | 230 °C | Cc1nnsc1C(=O)Nc1ccc(-n2nc(-c3nccs3)cc2C#N)cc1
40 | 133 to 134 °C | Cc1c(-c2ccncc2)oc2c1C(=O)C(C)(C)CC2
41 | 193 to 194 °C | COc1ccc(C(=O)Nc2cccc3cnccc23)cc1OC
